≈ marks a conversion by molar mass, not a printed value.
Columns and labels:
Format in all cases: functional
A549 = assay: Cytotoxicity against human A549 cells after 6 days by MTT assay; conditions: A549, 144 h, read-out: ED50 (the source's name)
P388 = assay: Cytotoxicity against mouse P388 cells after 3 days by MTT assay; conditions: P388, 72 h, read-out: ED50 (the source's name)
KB = assay: Cytotoxicity against human KB cells after 3 days by MTT assay; conditions: 72 h, read-out: ED50 (the source's name)
HT-29 = assay: Cytotoxicity against human HT29 cells after 6 days by MTT assay; conditions: HT-29, 144 h, read-out: ED50 (the source's name)

Structure (SMILES)	EC50 (A549) [µg/mL]	EC50 (P388) [µg/mL]	EC50 (KB) [µg/mL]	EC50 (HT-29) [µg/mL]
C/C1=C\C=C(\C(C)(C)O)CC[C@@]2(C)O[C@@H]2CC/C(C)=C/CC1	1.03 (≈ 3.38 µM)	0.01 (≈ 0.0328 µM)	0.63 (≈ 2.07 µM)	0.64 (≈ 2.1 µM)
C/C1=C\CCC(C)(O)C2C=C(C(C)(C)O)C(C/C(C)=C/CC1)O2 (stereo not drawn)	1.7 (≈ 5.3 µM)	0.23 (≈ 0.718 µM)	17.1 (≈ 53.4 µM)	1.81 (≈ 5.65 µM)
C/C1=C\C=C(\C(C)(C)O)C(O)C/C(C)=C/CC/C(C)=C/CC1 (stereo not drawn)	20.2 (≈ 66.2 µM)	1.54 (≈ 5.06 µM)	14.9 (≈ 49 µM)	0.29 (≈ 0.952 µM)
CC1=C2CC/C(C)=C/CC[C@@](C)(O)[C@@H](O)CC/C(C)=C/[C@@H]2OC1=O	24.7 (≈ 73.7 µM)	3.27 (≈ 9.78 µM)	> 50	22.9 (≈ 68.4 µM)
CC1=C2CC/C(C)=C/CC[C@]3(C)O[C@H]3CC/C(C)=C/[C@@H]2OC1	15.7 (≈ 52 µM)	3.87 (≈ 12.8 µM)	> 50	16.1 (≈ 53.1 µM)
COC(C)(C)/C1=C/[C@H]2O[C@]2(C)CC/C=C(\C)CC[C@H]2O[C@]2(C)CC1	> 50	3.26 (≈ 9.75 µM)	> 50	0.36 (≈ 1.08 µM)
CC1=C2CC/C(C)=C/CC[C@]3(C)O[C@H]3CC/C(C)=C/[C@@H]2OC1=O [SARCOPHINE]	10.4 (≈ 32.8 µM)	2.42 (≈ 7.65 µM)	> 50	10.5 (≈ 33.1 µM)
